# Experimental data taken from the supplement of paper PMC13207355.
# ± gives the standard deviation of the averaged measurements.
# What was measured:
# Conditions in all cases: exposure time: 72 h
# E13 [1] = patient-derived glioblastoma stem cells of classical subtype; assay: surviving fraction (nuclei count normalised to DMSO); higher = more cells surviving (less toxic)
# E21 [2] = patient-derived glioblastoma stem cells of mesenchymal subtype; assay: as above
# E28 [3] = patient-derived glioblastoma stem cells of classical subtype; assay: as above
# E34 [4] = patient-derived glioblastoma stem cells of proneural subtype; assay: as above
# E57 [5] = patient-derived glioblastoma stem cells of mesenchymal subtype; assay: as above
# FT3469 [6] = normal neural stem cell line; assay: as above
# E13 [7] = assay: phenotypic distance (Euclidean, principal components) from DMSO controls (arbitrary units); higher = stronger morphological change
# E21 [8] = assay: as above
# E28 [9] = assay: as above
# E34 [10] = assay: as above
# E57 [11] = assay: as above
# FT3469 [12] = assay: as above
# 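For phenotypic distance (Euclidean, principal components) from DMSO controls in this document: cell Painting imaging in 384-well plates, CellProfiler features reduced to at least 20 principal components, Euclidean distance versus same-plate DMSO vehicle wells (0.1% v/v), median over six images per well.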
# 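For surviving fraction (nuclei count normalised to DMSO) in this document: nuclei counted by high-content imaging of Hoechst-stained cells in laminin-coated 384-well plates, relative to 0.1% DMSO vehicle wells, with staurosporine as cell-death control.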
smiles,measurement,setting,value
CCn1cc(-c2ccnc3[nH]c(-c4cccc(CN(C)C)c4)cc23)c(-c2ccc(NC(=O)N(C)C)cc2)n1,surviving fraction,E13 [1]; 4.1 nM,0.468 ± 0.038
same,surviving fraction,E13 [1]; 12.3 nM,0.437 ± 0.068
same,surviving fraction,E13 [1]; 37 nM,0.458 ± 0.033
same,surviving fraction,E13 [1]; 111.1 nM,0.46 ± 0.046
same,surviving fraction,E13 [1]; 333.3 nM,0.49 ± 0.014
same,surviving fraction,E13 [1]; 1000 nM,0.456 ± 0.065
same,surviving fraction,E13 [1]; 3000 nM,0.439 ± 0.044
same,surviving fraction,E21 [2]; 4.1 nM,0.418 ± 0.088
same,surviving fraction,E21 [2]; 12.3 nM,0.428 ± 0.015
same,surviving fraction,E21 [2]; 37 nM,0.442 ± 0.031
same,surviving fraction,E21 [2]; 111.1 nM,0.449 ± 0.086
same,surviving fraction,E21 [2]; 333.3 nM,0.359 ± 0.025
same,surviving fraction,E21 [2]; 1000 nM,0.4316 ± 0.0038
same,surviving fraction,E21 [2]; 3000 nM,0.314 ± 0.053
same,surviving fraction,E28 [3]; 4.1 nM,0.639 ± 0.046
same,surviving fraction,E28 [3]; 12.3 nM,0.603 ± 0.008
same,surviving fraction,E28 [3]; 37 nM,0.542 ± 0.039
same,surviving fraction,E28 [3]; 111.1 nM,0.5559 ± 0.002
same,surviving fraction,E28 [3]; 333.3 nM,0.549 ± 0.016
same,surviving fraction,E28 [3]; 1000 nM,0.53 ± 0.023
same,surviving fraction,E28 [3]; 3000 nM,0.397 ± 0.11
same,surviving fraction,E34 [4]; 4.1 nM,0.664 ± 0.086
same,surviving fraction,E34 [4]; 12.3 nM,0.622 ± 0.079
same,surviving fraction,E34 [4]; 37 nM,0.787 ± 0.074
same,surviving fraction,E34 [4]; 111.1 nM,0.815 ± 0.13
same,surviving fraction,E34 [4]; 333.3 nM,0.842 ± 0.02
same,surviving fraction,E34 [4]; 1000 nM,0.8037 ± 0.0053
same,surviving fraction,E34 [4]; 3000 nM,0.673 ± 0.082
same,surviving fraction,E57 [5]; 4.1 nM,0.385 ± 0.037
same,surviving fraction,E57 [5]; 12.3 nM,0.338 ± 0.016
same,surviving fraction,E57 [5]; 37 nM,0.287 ± 0.016
same,surviving fraction,E57 [5]; 111.1 nM,0.325 ± 0.0066
same,surviving fraction,E57 [5]; 333.3 nM,0.306 ± 0.016
same,surviving fraction,E57 [5]; 1000 nM,0.314 ± 0.021
same,surviving fraction,E57 [5]; 3000 nM,0.221 ± 0.011
same,surviving fraction,FT3469 [6]; 4.1 nM,0.759 ± 0.042
same,surviving fraction,FT3469 [6]; 12.3 nM,0.76 ± 0.051
same,surviving fraction,FT3469 [6]; 37 nM,0.788 ± 0.021
same,surviving fraction,FT3469 [6]; 111.1 nM,0.844 ± 0.086
same,surviving fraction,FT3469 [6]; 333.3 nM,0.708 ± 0.033
same,surviving fraction,FT3469 [6]; 1000 nM,0.729 ± 0.056
same,surviving fraction,FT3469 [6]; 3000 nM,0.591 ± 0.044
same,phenotypic distance,E13 [7]; 4.1 nM,4.52 ± 0.16
same,phenotypic distance,E13 [7]; 12.3 nM,4.8 ± 0.56
same,phenotypic distance,E13 [7]; 37 nM,4.56 ± 0.091
same,phenotypic distance,E13 [7]; 111.1 nM,5.0354 ± 0.00092
same,phenotypic distance,E13 [7]; 333.3 nM,4.64 ± 0.07
same,phenotypic distance,E13 [7]; 1000 nM,4.84 ± 0.39
same,phenotypic distance,E13 [7]; 3000 nM,3.74 ± 0.68
same,phenotypic distance,E21 [8]; 4.1 nM,4.9 ± 0.059
same,phenotypic distance,E21 [8]; 12.3 nM,5.1 ± 0.052
same,phenotypic distance,E21 [8]; 37 nM,5.06 ± 0.62
same,phenotypic distance,E21 [8]; 111.1 nM,5.32 ± 0.66
same,phenotypic distance,E21 [8]; 333.3 nM,5.21 ± 0.49
same,phenotypic distance,E21 [8]; 1000 nM,4.91 ± 0.57
same,phenotypic distance,E21 [8]; 3000 nM,5.07 ± 0.28
same,phenotypic distance,E28 [9]; 4.1 nM,2.81 ± 0.22
same,phenotypic distance,E28 [9]; 12.3 nM,2.81 ± 0.44
same,phenotypic distance,E28 [9]; 37 nM,2.55 ± 0.41
same,phenotypic distance,E28 [9]; 111.1 nM,2.69 ± 0.18
same,phenotypic distance,E28 [9]; 333.3 nM,2.57 ± 0.28
same,phenotypic distance,E28 [9]; 1000 nM,2.83 ± 0.15
same,phenotypic distance,E28 [9]; 3000 nM,2.95 ± 0.096
same,phenotypic distance,E34 [10]; 4.1 nM,2.75 ± 0.24
same,phenotypic distance,E34 [10]; 12.3 nM,2.68 ± 0.43
same,phenotypic distance,E34 [10]; 37 nM,2.46 ± 0.13
same,phenotypic distance,E34 [10]; 111.1 nM,2.4 ± 0.34
same,phenotypic distance,E34 [10]; 333.3 nM,2.43 ± 0.12
same,phenotypic distance,E34 [10]; 1000 nM,2.62 ± 0.25
same,phenotypic distance,E34 [10]; 3000 nM,1.93 ± 0.35
same,phenotypic distance,E57 [11]; 4.1 nM,4.79 ± 0.41
same,phenotypic distance,E57 [11]; 12.3 nM,4.9 ± 0.57
same,phenotypic distance,E57 [11]; 37 nM,6.03 ± 0.14
same,phenotypic distance,E57 [11]; 111.1 nM,5.9 ± 0.088
same,phenotypic distance,E57 [11]; 333.3 nM,6.027 ± 0.058
same,phenotypic distance,E57 [11]; 1000 nM,5.9 ± 0.4
same,phenotypic distance,E57 [11]; 3000 nM,5.4 ± 0.3
same,phenotypic distance,FT3469 [12]; 4.1 nM,1.96 ± 0.42
same,phenotypic distance,FT3469 [12]; 12.3 nM,2.32 ± 0.26
same,phenotypic distance,FT3469 [12]; 37 nM,2 ± 0.04
same,phenotypic distance,FT3469 [12]; 111.1 nM,2.07 ± 0.15
same,phenotypic distance,FT3469 [12]; 333.3 nM,2.13 ± 0.28
same,phenotypic distance,FT3469 [12]; 1000 nM,2.98 ± 1.3
same,phenotypic distance,FT3469 [12]; 3000 nM,2.08 ± 0.33
